Measured values as given in patent EP0705591A2, “Cyclic amidocarboxy surfactants, synthesis and use thereof” (STEPAN COMPANY, priority 1989, dated 1991).
Blank lines part the entries; values can stand above or below the molecule they belong to.

Assays:
[1] = Emulsion stability test (modified, xylene/water); format: physicochemical; conditions: 0.5g surfactant, 90 mL deionized water, 5.0 mL xylene; second rocking sequence
Method: In order to obtain reproducible results, an emulsion stability test, modified from the standard used in the art for testing surfactants was developed. In the modified procedure, 0.5g of a select surfactant (instead of 1g) was dissolved in 90 mL of deionized water in a graduated cylinder containing 5.0 mL of xylene, which was then sealed and rocked between a vertical/horizontal position for 30 cycles, allowed to settle for about 5 to 10 minutes and subjected to the same rocking cycle with the results of the second sequence recorded (instead of the first sequence).

[2] = Cold storage and freeze-thaw stability of solutions; format: physicochemical; design: key: P - PASS; conditions: 1% actives; for STABILITY FREEZE THAW: 3 freezing/thawing cycles; for STABILITY COLD STORAGE: 24 hours at 4 °C
Method: (§1) Sodium N-octadecylphthalamate, 1% actives, was evaluated for solubility in various solvents and under cold storage (4°C) and freeze-thaw conditions.

[3] = Thermal stability followed by IR spectroscopy; format: physicochemical; conditions: for Conversion to the N-dodecylphthalimide: neat (100% actives), about 100°C
Method: Thermal stability studies were conducted with neat (100% actives) sample of ammonium N-dodecylphthalamate mulled on sodium chloride plates. […]

[4] = Emulsification in foodstuffs; conditions: about 1% by weight, substituted for egg yolk
Method: Sodium N-octadecylphthalamate was added to a standard cup-cake recipe at actives levels of 0% (control), 1%, 2%, 3%, 4%, and 5%. The N-octadecylphthalamate was admixed into a typical batter as a partial replacement for the shortening, margarine or butter called for in the recipe, baked at a uniform temperature (about 176°C) and time (about 25 minutes). […] A mayonnaise formulation containing about 1% by weight, based on a 100% total weight of formulation, of sodium N-octadecylphthalamate was prepared, with the N-octadecylphthalamate being substituted for egg yolk in a given recipe. […] A dog food was prepared by admixing about 200g of "Generic" beef-flavored dog food with 3g of 100% actives sodium N-octadecylphthalamate. Samples of this dog food were exposed to various temperatures (i.e., 0°C, 43°C and 50°C).

[5] = Solubility in various solvents (vehicles); format: physicochemical; design: key: I - INSOLUBLE; S - SOLUBLE; conditions: 1% actives
Method: as §1

[6] = Ross-Miles Foaming test; format: physicochemical; conditions: tap water; active level of 0.1%
Source text: (§2) Standard Ross-Miles Foaming and Draves Wetting tests were preformed on various fatty phthalamates with the results set forth in Table 1 below. In all tests, an active level of 0.1% was utilized.

[7] = Draves Wetting test; format: physicochemical; conditions: tap water; active level of 0.1%
Source text: as §2

[8] = Bleach (chlorine ion) stability; format: physicochemical; conditions: for formulation clarity / foaming characteristics: 2.0% actives surfactant, 4.0% actives NaOCl; for formulation clarity: 1.0% NaOH, 90°C water bath about 5 hours; for foaming characteristics: after about 5 hours at 90°C
Source text: Select N-alkyl and N,N-dialkyl phthalamates were incorporated into a standard test formulation containing a common bleach. […] The standard formulation comprised 4.0% actives of NaOCl; 0.25% actives NaCl; 1.0% actives NaOH (50%); 2.0% actives surfactant and Q.S. 100% deionized water. 1. DOWFAX^R-2A1 is Dow Chemical Company's registered trademark for sodium branched C₁₂ diphenyloxide disulfonate. 2. MAKON^R- 10 is Stepan Company's registered trademark for a nonylphenol polyethoxylate.
The various formulations were individually placed in tightly capped jars and subjected to a 90°C water bath for about 5 hours and then observed for formulation clarity and foaming characteristics. Each sample was run in duplicate.

[9] = Crude oil emulsification/dispersion and pH reversibility; format: physicochemical
Method: Sodium N-dodecylphthalamate, sodium N-cocophthalamate, sodium N-isodecyloxypropylphthalamate and sodium N-isododecyloxypropylphthalamate, along with a control (tap water only), were evaluated as emulsifying and/or dispersing and/or suspending agents for a given, heavy (viscous) crude petroleum oil (Dome crude oil, David Field, California) in different water samples, one having a hardness (expressed as CaCO₃) of 150 ppm, another having a hardness of 500 ppm, along with a synthetic sea water (NaCl-containing tap water, 150 ppm). In addition, various admixtures of sodium N-dodecylphthalamate and lauryl amine oxide were similarly evaluated with the above petroleum crude oil and synthetic sea water for synergistic emulsification characteristics.
The respective surfactants were prepared as aqueous solutions with the various water samples at a concentration of about 0.1 percent actives. Measured samples (50 mL) of the surfactant solutions were placed in 100 mL graduated cylinders, 2 drops of the crude oil added, the cylinders stoppered and relatively vigorously shaken manually for about 10 to 20 seconds. The degree of emulsification/dispersion, suspension was noted and recorded The data is set for in Table VIII below.
At relatively high pH values (i.e., above about 7) emulsification of the crude oil readily occurred and at relatively how pH values (i.e., below about 5) de-emulsification of the crude oil readily occurred. A control was prepared from a sample of the 150 ppm hardness water without surfactant but with 2 drops of the above crude oil.
The foregoing cycle between relatively high pH and relatively low pH was repeated an additional three times, with essentially identical emulsification/de-emulsification results. During a low (4.9) pH de-emulsification cycle, separated crude oil was removed, by decantation and a pH of the remaining (used) phthalamic solution was adjusted to about 13.5 and fresh crude oil added. […] Upon addition of additional fresh sodium N-dodecylphthalamate, the emulsion re-formed.

[10] = Particulate material suspension; format: physicochemical
Method: In this test, potassium N-octadecylphthalamate was utilized as a suspending agent in a typical shampoo base with known particulate anti-dandruff materials, zinc pyrithione and coal tar. Particulate (about 500 mesh) zinc pyrithione and particulate (about 350 to 400 mesh) coal tar were suspended in shampoo base formulations and stored at room temperature, at about 1.6°C and at about 43.3°C.
About 2 percent potassium octadecylphthalamate was incorporated with about 50 to 70 percent particulate coal (average size about 200 mesh) and about 30 to 50 percent water at ambient temperature.

[11] = Caustic stability (reflux with NaOH); format: physicochemical; conditions: for ES*(mL/sec) (Emulsion Stability): reflux with an equivalent of NaOH
Method: In order to determine caustic stability of the phthalamates, 5g of octylphthalamic acid was dissolved in 450 mL of water containing an equivalent of NaOH. This mixture was heated at reflux for about 24 hours and five separate 90mL samples were withdrawn at 0 hours, 1 hour, 2 hours, 16.5 hours and 23.7 hours. The resulting individual samples were acidified and the sodium N-octylphthalamic acid was isolated and analyzed (filtered, dried, weighted and m.p. and neutralization equivalents were obtained).

[12] = 0.1% actives in 50 mL of 150 ppm hardness water

Molecule: CCCCCCCCNC(=O)c1ccccc1C(=O)O.OCCN(CCO)CCO [Triethanolammonium N-octylphthalamate]
Emulsion Break Rate [1]: 0.043 mL/s

Emulsion Break Rate [1]: 0.085 mL/s
Molecule: CCCCCCCCCCCCCCNC(=O)c1ccccc1C(=O)[O-].[Na+] [Sodium N-tetradecylphthalamate]

Molecule: CCCCCCCCCCCCCCCCCCNC(=O)c1ccccc1C(=O)[O-].[Na+] [Sodium N-octadecylphthalamate, Sodium N-Octadecylphthalamate]
STABILITY FREEZE THAW ([2]; vehicle AMMONYX^R LO): P
STABILITY COLD STORAGE ([2]; vehicle AMMONYX^R LO): P
STABILITY FREEZE THAW ([2]; vehicle AMPHOSOL^R): P
STABILITY COLD STORAGE ([2]; vehicle AMPHOSOL^R): P
STABILITY FREEZE THAW ([2]; vehicle MAKON^R 10): P
STABILITY COLD STORAGE ([2]; vehicle MAKON^R 10): P
STABILITY FREEZE THAW ([2]; vehicle NINOL^R 40-CO): P
STABILITY COLD STORAGE ([2]; vehicle NINOL^R 40-CO): P
imidation ([3]; 3.5 hours at 150°C): only a very small degree of imidation
imidation ([3]; 64 hours at 150°C): significant formation of N-octadecylphthalimide
mayonnaise emulsion stability [4]: excellent stability
APPEARANCE 24 HOURS @ RT^0 AFTER HEAT ([5]; vehicle AMMONYX^R LO): S
APPEARANCE 25^0C ([5]; vehicle AMMONYX^R LO): S
APPEARANCE 50^0C ([5]; vehicle AMMONYX^R LO): S
APPEARANCE 24 HOURS @ RT^0 AFTER HEAT ([5]; vehicle AMPHOSOL^R): S
APPEARANCE 25^0C ([5]; vehicle AMPHOSOL^R): I
APPEARANCE 50^0C ([5]; vehicle AMPHOSOL^R): S
APPEARANCE 24 HOURS @ RT^0 AFTER HEAT ([5]; vehicle MAKON^R 10): S
APPEARANCE 25^0C ([5]; vehicle MAKON^R 10): I
APPEARANCE 50^0C ([5]; vehicle MAKON^R 10): I
APPEARANCE 24 HOURS @ RT^0 AFTER HEAT ([5]; vehicle NINOL^R 40-CO): S
APPEARANCE 25^0C ([5]; vehicle NINOL^R 40-CO): I
APPEARANCE 50^0C ([5]; vehicle NINOL^R 40-CO): S
APPEARANCE 24 HOURS @ RT^0 AFTER HEAT ([5]; vehicle STEPANATE^R): I
APPEARANCE 25^0C ([5]; vehicle STEPANATE^R): I
APPEARANCE 50^0C ([5]; vehicle STEPANATE^R): I

Molecule: CCCCCCCCCCCCNC(=O)c1ccccc1C(=O)O.N [ammonium N-dodecylphthalamate, Ammonium N-Dodecylphthalamate]
Conversion to the N-dodecylphthalimide ([3]; 10 minutes): very apparent
Conversion to the N-dodecylphthalimide ([3]; 20 minutes): almost total conversion

Emulsion Break Rate [1]: 0.102 mL/s
Molecule: CCCCCCCCCCCCCCCCNC(=O)c1ccccc1C(=O)[O-].[Na+] [Sodium N-hexadecylphthalamate]

Molecule: CCCCCCCCCCNC(=O)c1ccccc1C(=O)[O-].[Na+] [Sodium N-decylphthalamate]
Emulsion Break Rate [1]: 0.034 mL/s

foam height [6]: 5.5 cm
wetting time [7]: 4.5 s
Molecule: CC(C)CCCCCCCCCOCCCNC(=O)c1ccccc1C(=O)[O-].[Na+] [sodium isododecyloxypropylphthalamate, Sodium N-Isododecyloxypropylphthalamate]

formulation clarity [8]: clear yellow throughout the test
foaming characteristics [8]: unstabile
bleach stability ([8]; conclusion from the 90°C bleach test): good bleach stability
Molecule: CCCCCCCCCCCCN(C)C(=O)c1ccccc1C(=O)[O-].[Na+] [sodium N-methyl-N-dodecylphthalamate, Sodium N-Dodecyl-N-methylphthalamate]

Molecule: CCCCCCCCCCCCNC(=O)c1ccccc1C(=O)[O-].[Na+] [Sodium N-dodecylphthalamate, Sodium N-Dodecylphthalamate]
Emulsion Break Rate [1]: 0.068 mL/s
formulation clarity [8]: initially clear yellow but became cloudy and exhibited phase separation
pH values at which de-emulsification of the crude oil readily occurred [9, 12]: below 5
pH values at which emulsification of the crude oil readily occurred [9, 12]: above 7
emulsification of crude oil ([9]; 0.1% actives, 150 ppm hardness water, pH of 8.5): the oil readily emulsified
emulsification of crude oil ([9]; pH dropped to about 3.5): the emulsion broke
emulsification of crude oil ([9]; pH dropped to about 5.2): a slight flocculation noted
emulsification of crude oil ([9]; pH dropped to about 7.0): without noticeable de-emulsification
emulsification of crude oil ([9]; pH dropped with 1N HCl to about 2.6): the emulsion broke, almost instantly, with floccing
emulsification of crude oil ([9]; pH raised with 1N NaOH to about 13.4): an emulsified solution was noted
emulsification of crude oil ([9]; used solution, pH about 13.5, fresh crude oil added): very stabile emulsion was quickly formed
thermal stability ([3]; 120°C): stabile

Molecule: CCCCCCCCCCNC(=O)c1ccccc1C(=O)O.OCCN(CCO)CCO [Triethanolammonium N-decylphthalamate]
Emulsion Break Rate [1]: 0.046 mL/s

formulation clarity [8]: poor solubility, with phase separation
foaming characteristics [8]: no pre-bath or post-bath foam
Molecule: sodium N,N-dicocophthalamate

Molecule: CCCCCCCCCCCCNC(=O)c1ccccc1C(=O)O.OCCN(CCO)CCO [Triethanolammonium N-dodeylphthalamate]
Emulsion Break Rate [1]: 0.039 mL/s

Molecule: CCCCCCCCCCCCCCCCCCNC(=O)c1ccccc1C(=O)[O-].[K+] [potassium N-octadecylphthalamate]
suspension of particulate coal in water ([10]; about 2 percent with about 50 to 70 percent coal (about 200 mesh), ambient temperature): free flowing, substantially homogeneous suspension
stability of zinc pyrithione suspension in shampoo base ([10]; after 5 days at 43.3°C): phase separation
stability of coal tar suspension in shampoo base ([10]; after 5 days at room temperature, at 1.6°C and at 43.3°C): excellent stability

Molecule: CCCCCCCCNC(=O)c1ccccc1C(=O)[O-].[Na+] [Sodium N-octylphthalamate]
Emulsion Break Rate [1]: 0.111 mL/s
pH at which stable ([11]; caustic environment, reflux about 24 hours): at least 10
ES*(mL/sec) (Emulsion Stability) ([11]; sample at 0 hr): 0.0252 mL/s
ES*(mL/sec) (Emulsion Stability) ([11]; sample at 1 hr): 0.0325 mL/s
ES*(mL/sec) (Emulsion Stability) ([11]; sample at 2 hr): 0.0400 mL/s
ES*(mL/sec) (Emulsion Stability) ([11]; sample at 16.5 hr): 0.0690 mL/s
ES*(mL/sec) (Emulsion Stability) ([11]; sample at 23.7 hr): 0.108 mL/s
